Among the data in patent US20260184663A1, “INDENE COMPOUNDS, PHARMACEUTICAL COMPOSITIONS THEREOF, AND THEIR THERAPEUTIC APPLICATIONS” (NucMito Pharmaceuticals co. Ltd., priority 2022, published 2026) are inhibition values, retold here.

For one experiment, the system named is alpha-smooth muscle actin (α-SMA). Put plainly: Inhibition of TGF-β induced expression of alpha-smooth muscle actin (α-SMA) in CFSC cells (western blot). Type of experiment: cell-based. Conditions: compound at 10 μM, TGF-β (10 ng/mL), 24 hours, band intensity vs TGF-β only. An outline of the steps:
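CFSC hepatic stellate cells in serum-free DMEM treated 24 h at 37 °C with compound at 10 μM plus TGF-β (10 ng/mL). α-SMA measured by Western blot with β-actin, ECL detection, densitometry. Percent inhibition is decrease in band intensity versus TGF-β-only cells.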
(In general: In western blotting, separated proteins are transferred to a membrane and probed.)
In turn, `CC1=C(CC(=O)O)c2cccc(F)c2/C1=C\c1cccc(COc2ccccc2)c1` [B9, (Z)-2-(7-Fluoro-2-methyl-1-(3-(phenoxymethyl)benzylidene)-1H-inden-3-yl)-acetic acid] showed an inhibition at 10 µM of 50 to 80%.

The molecule `CC1=C(CC(=O)O)c2ccc(F)cc2/C1=C\c1cccc(COc2ccccc2)c1` [B10, (Z)-2-(6-Fluoro-2-methyl-1-(3-(phenoxymethyl)benzylidene)-1H-inden-3-yl)-acetic acid] gave an inhibition at 10 µM above 80%.

In a further experiment the test system is MDA-MB-231 (breast cancer). Put plainly: Antiproliferative activity (CCK-8 cell viability), MDA-MB-231. Type of experiment: cell-based. Conditions: Homo sapiens, Compound concentration: 3.3 μM, 72 h, read-out: Antiproliferative activity in cancerous cells, MDA-MB-231 (inhibition of cell growth). An outline of the steps: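 Growth inhibition of human MDA-MB-231 breast cancer cells was assessed with a Cell Counting Kit-8. Cells cultured in DMEM plus 10% FBS were seeded at 2,000-5,000 cells/well, treated after attachment, and kept 72 h at 37° C. CCK-8 solution (10 μL) was added for 4 h, and absorbance at 450 nm was compared with DMSO-treated controls.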
As to `CC1=C(CC(=O)O)c2cccc(F)c2/C1=C\c1cccc(COc2ccccc2)c1` [B9, (Z)-2-(7-Fluoro-2-methyl-1-(3-(phenoxymethyl)benzylidene)-1H-inden-3-yl)-acetic acid], the inhibition at 3.3 µM is 30 to 50%.

Regarding `CC1=C(CC(=O)O)c2ccc(F)cc2/C1=C\c1cccc(COc2ccccc2)c1` [B10, (Z)-2-(6-Fluoro-2-methyl-1-(3-(phenoxymethyl)benzylidene)-1H-inden-3-yl)-acetic acid], the inhibition at 3.3 µM was 30 to 50%.

Staying with this experiment, now noted: Homo sapiens, Compound concentration: 10 μM, 72 h, read-out: Antiproliferative activity in cancerous cells, MDA-MB-231 (inhibition of cell growth).
On to `CC1=C(CC(=O)O)c2cccc(F)c2/C1=C\c1cccc(COc2ccccc2)c1` [B9, (Z)-2-(7-Fluoro-2-methyl-1-(3-(phenoxymethyl)benzylidene)-1H-inden-3-yl)-acetic acid], for which the inhibition at 10 µM is 30 to 50%.

Consider `CC1=C(CC(=O)O)c2ccc(F)cc2/C1=C\c1cccc(COc2ccccc2)c1` [B10, (Z)-2-(6-Fluoro-2-methyl-1-(3-(phenoxymethyl)benzylidene)-1H-inden-3-yl)-acetic acid], for which the inhibition at 10 µM is at least 50%.

A further experiment has as its system HepG2 (liver cancer). Briefly: Antiproliferative activity (CCK-8 cell viability), HepG2. Type of experiment: cell-based. Conditions: Homo sapiens, Compound concentration: 3.3 μM, 72 h, read-out: Antiproliferative activity in cancerous cells, HepG2 (inhibition of cell growth). An outline of the steps:
(§1)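 Growth inhibition graded in bands from percent viability against DMSO vehicle, read as CCK-8 absorbance at 450 nm. Compound tested at 3.3, 10 or 30 μM for 72 h, 37 °C; media contained 10% FBS: DMEM for HepG2/SW480, MEM for HeLa, F-12K for A549.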
As for `CC1=C(CC(=O)O)c2cccc(F)c2/C1=C\c1cccc(COc2ccccc2)c1` [B9, (Z)-2-(7-Fluoro-2-methyl-1-(3-(phenoxymethyl)benzylidene)-1H-inden-3-yl)-acetic acid], the inhibition at 3.3 µM was below 30%.

As to `CC1=C(CC(=O)O)c2ccc(F)cc2/C1=C\c1cccc(COc2ccccc2)c1` [B10, (Z)-2-(6-Fluoro-2-methyl-1-(3-(phenoxymethyl)benzylidene)-1H-inden-3-yl)-acetic acid], the inhibition at 3.3 µM lay in the range of 30 to 50%.

The same experiment, now with this note: Homo sapiens, Compound concentration: 10 μM, 72 h, read-out: Antiproliferative activity in cancerous cells, HepG2 (inhibition of cell growth).
With `CC1=C(CC(=O)O)c2cccc(F)c2/C1=C\c1cccc(COc2ccccc2)c1` [B9, (Z)-2-(7-Fluoro-2-methyl-1-(3-(phenoxymethyl)benzylidene)-1H-inden-3-yl)-acetic acid], the inhibition at 10 µM is below 30%.

For `CC1=C(CC(=O)O)c2ccc(F)cc2/C1=C\c1cccc(COc2ccccc2)c1` [B10, (Z)-2-(6-Fluoro-2-methyl-1-(3-(phenoxymethyl)benzylidene)-1H-inden-3-yl)-acetic acid], the inhibition at 10 µM was at least 50%.

The test system of a further experiment is SW480 (colon cancer). Briefly: Antiproliferative activity (CCK-8 cell viability), SW480. Type of experiment: cell-based. Conditions: Homo sapiens, Compound concentration: 3.3 μM, 72 h, read-out: Antiproliferative activity in cancerous cells, SW480 (inhibition of cell growth). An outline of the steps:
as §1
`CC1=C(CC(=O)O)c2cccc(F)c2/C1=C\c1cccc(COc2ccccc2)c1` [B9, (Z)-2-(7-Fluoro-2-methyl-1-(3-(phenoxymethyl)benzylidene)-1H-inden-3-yl)-acetic acid]: the inhibition at 3.3 µM was below 30%.

Consider `CC1=C(CC(=O)O)c2ccc(F)cc2/C1=C\c1cccc(COc2ccccc2)c1` [B10, (Z)-2-(6-Fluoro-2-methyl-1-(3-(phenoxymethyl)benzylidene)-1H-inden-3-yl)-acetic acid], for which the inhibition at 3.3 µM was below 30%.

Staying with this experiment, now noted: Homo sapiens, Compound concentration: 10 μM, 72 h, read-out: Antiproliferative activity in cancerous cells, SW480 (inhibition of cell growth).
As for `CC1=C(CC(=O)O)c2cccc(F)c2/C1=C\c1cccc(COc2ccccc2)c1` [B9, (Z)-2-(7-Fluoro-2-methyl-1-(3-(phenoxymethyl)benzylidene)-1H-inden-3-yl)-acetic acid], the inhibition at 10 µM is below 30%.

As to `CC1=C(CC(=O)O)c2ccc(F)cc2/C1=C\c1cccc(COc2ccccc2)c1` [B10, (Z)-2-(6-Fluoro-2-methyl-1-(3-(phenoxymethyl)benzylidene)-1H-inden-3-yl)-acetic acid], the inhibition at 10 µM was below 30%.

The next experiment concerns B16F10 (malignant melanoma). Briefly: Antiproliferative activity (CCK-8 cell viability), B16F10. In kind it is cell-based. Conditions: Mus musculus, B16-F10, Compound concentration: 3.3 μM, 72 h, read-out: Antiproliferative activity in cancerous cells, B16F10 (inhibition of cell growth). An outline of the steps: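 Cell growth inhibition was measured in B16F10 malignant melanoma cells with a Cell Counting Kit-8 viability assay. Cells were maintained in DMEM plus 10% fetal bovine serum, seeded at 2,000-5,000 cells/well in 96-well plates, and treated for 72 h at 37° C. Viability was expressed relative to DMSO-treated vehicle control wells.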
For `CC1=C(CC(=O)O)c2cccc(F)c2/C1=C\c1cccc(COc2ccccc2)c1` [B9, (Z)-2-(7-Fluoro-2-methyl-1-(3-(phenoxymethyl)benzylidene)-1H-inden-3-yl)-acetic acid], the inhibition at 3.3 µM was below 30%.

As to `CC1=C(CC(=O)O)c2ccc(F)cc2/C1=C\c1cccc(COc2ccccc2)c1` [B10, (Z)-2-(6-Fluoro-2-methyl-1-(3-(phenoxymethyl)benzylidene)-1H-inden-3-yl)-acetic acid], the inhibition at 3.3 µM is below 30%.

Staying with this experiment, now noted: Mus musculus, B16-F10, Compound concentration: 10 μM, 72 h, read-out: Antiproliferative activity in cancerous cells, B16F10 (inhibition of cell growth).
As for `CC1=C(CC(=O)O)c2cccc(F)c2/C1=C\c1cccc(COc2ccccc2)c1` [B9, (Z)-2-(7-Fluoro-2-methyl-1-(3-(phenoxymethyl)benzylidene)-1H-inden-3-yl)-acetic acid], the inhibition at 10 µM was at least 50%.

In the case of `CC1=C(CC(=O)O)c2ccc(F)cc2/C1=C\c1cccc(COc2ccccc2)c1` [B10, (Z)-2-(6-Fluoro-2-methyl-1-(3-(phenoxymethyl)benzylidene)-1H-inden-3-yl)-acetic acid], the inhibition at 10 µM was at least 50%.

The test system of the next experiment is A431 (epidermoid carcinoma). Briefly: Antiproliferative activity (CCK-8 cell viability), A431. In kind it is cell-based. Conditions: Homo sapiens, A-431, Compound concentration: 3.3 μM, 72 h, read-out: Antiproliferative activity in cancerous cells, A431 (inhibition of cell growth). An outline of the steps: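 This growth inhibition assay used A431 cells maintained in Dulbecco's modified Eagle's medium plus 10% fetal bovine serum. Cells were seeded in 96-well plates, treated with compound for 72 h at 37° C., and then given 10 μL CCK-8 solution. After a further 4 h, absorbance was read at 450 nm.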
Take `CC1=C(CC(=O)O)c2cccc(F)c2/C1=C\c1cccc(COc2ccccc2)c1` [B9, (Z)-2-(7-Fluoro-2-methyl-1-(3-(phenoxymethyl)benzylidene)-1H-inden-3-yl)-acetic acid]: the inhibition at 3.3 µM was below 30%.

For `CC1=C(CC(=O)O)c2ccc(F)cc2/C1=C\c1cccc(COc2ccccc2)c1` [B10, (Z)-2-(6-Fluoro-2-methyl-1-(3-(phenoxymethyl)benzylidene)-1H-inden-3-yl)-acetic acid], the inhibition at 3.3 µM is below 30%.

The experiment is the same for the next values; noted with them: Homo sapiens, A-431, Compound concentration: 10 μM, 72 h, read-out: Antiproliferative activity in cancerous cells, A431 (inhibition of cell growth).
As to `CC1=C(CC(=O)O)c2cccc(F)c2/C1=C\c1cccc(COc2ccccc2)c1` [B9, (Z)-2-(7-Fluoro-2-methyl-1-(3-(phenoxymethyl)benzylidene)-1H-inden-3-yl)-acetic acid], the inhibition at 10 µM is below 30%.

For `CC1=C(CC(=O)O)c2ccc(F)cc2/C1=C\c1cccc(COc2ccccc2)c1` [B10, (Z)-2-(6-Fluoro-2-methyl-1-(3-(phenoxymethyl)benzylidene)-1H-inden-3-yl)-acetic acid], the inhibition at 10 µM is at least 50%.

Another experiment has as its system A549 (lung adenocarcinoma). Briefly: Antiproliferative activity (CCK-8 cell viability), A549. In kind it is cell-based. Conditions: Homo sapiens, Compound concentration: 3.3 μM, 72 h, read-out: Antiproliferative activity in cancerous cells, A549 (inhibition of cell growth). An outline of the steps:
as §1
As to `CC1=C(CC(=O)O)c2cccc(F)c2/C1=C\c1cccc(COc2ccccc2)c1` [B9, (Z)-2-(7-Fluoro-2-methyl-1-(3-(phenoxymethyl)benzylidene)-1H-inden-3-yl)-acetic acid], the inhibition at 3.3 µM was in the range of 30 to 50%.

Regarding `CC1=C(CC(=O)O)c2ccc(F)cc2/C1=C\c1cccc(COc2ccccc2)c1` [B10, (Z)-2-(6-Fluoro-2-methyl-1-(3-(phenoxymethyl)benzylidene)-1H-inden-3-yl)-acetic acid], the inhibition at 3.3 µM is below 30%.

Still in this experiment, the particulars now being: Homo sapiens, Compound concentration: 10 μM, 72 h, read-out: Antiproliferative activity in cancerous cells, A549 (inhibition of cell growth).
Turning to `CC1=C(CC(=O)O)c2cccc(F)c2/C1=C\c1cccc(COc2ccccc2)c1` [B9, (Z)-2-(7-Fluoro-2-methyl-1-(3-(phenoxymethyl)benzylidene)-1H-inden-3-yl)-acetic acid], the inhibition at 10 µM was 30 to 50%.

As for `CC1=C(CC(=O)O)c2ccc(F)cc2/C1=C\c1cccc(COc2ccccc2)c1` [B10, (Z)-2-(6-Fluoro-2-methyl-1-(3-(phenoxymethyl)benzylidene)-1H-inden-3-yl)-acetic acid], the inhibition at 10 µM is at least 50%.

The experiment is the same for the next values; noted with them: Homo sapiens, Compound concentration: 30 μM, 72 h, read-out: Antiproliferative activity in cancerous cells, A549.
Consider `CC1=C(CC(=O)O)c2cccc(F)c2/C1=C\c1cccc(COc2ccccc2)c1` [B9, (Z)-2-(7-Fluoro-2-methyl-1-(3-(phenoxymethyl)benzylidene)-1H-inden-3-yl)-acetic acid], for which the inhibition at 30 µM was in the range of 30 to 50%.

In a further experiment the test system is HeLa (cervical cancer). Put plainly: Antiproliferative activity (CCK-8 cell viability), HeLa. Conditions: Homo sapiens, Compound concentration: 3.3 μM, 72 h, read-out: Antiproliferative activity in cancerous cells, HELA (inhibition of cell growth). In kind it is cell-based. An outline of the steps: as §1
Consider `CC1=C(CC(=O)O)c2cccc(F)c2/C1=C\c1cccc(COc2ccccc2)c1` [B9, (Z)-2-(7-Fluoro-2-methyl-1-(3-(phenoxymethyl)benzylidene)-1H-inden-3-yl)-acetic acid], for which the inhibition at 3.3 µM is below 30%.

Turning to `CC1=C(CC(=O)O)c2ccc(F)cc2/C1=C\c1cccc(COc2ccccc2)c1` [B10, (Z)-2-(6-Fluoro-2-methyl-1-(3-(phenoxymethyl)benzylidene)-1H-inden-3-yl)-acetic acid], the inhibition at 3.3 µM is below 30%.

Still in this experiment, the particulars now being: Homo sapiens, Compound concentration: 10 μM, 72 h, read-out: Antiproliferative activity in cancerous cells, HELA (inhibition of cell growth).
Turning to `CC1=C(CC(=O)O)c2cccc(F)c2/C1=C\c1cccc(COc2ccccc2)c1` [B9, (Z)-2-(7-Fluoro-2-methyl-1-(3-(phenoxymethyl)benzylidene)-1H-inden-3-yl)-acetic acid], the inhibition at 10 µM is 30 to 50%.

As to `CC1=C(CC(=O)O)c2ccc(F)cc2/C1=C\c1cccc(COc2ccccc2)c1` [B10, (Z)-2-(6-Fluoro-2-methyl-1-(3-(phenoxymethyl)benzylidene)-1H-inden-3-yl)-acetic acid], the inhibition at 10 µM was below 30%.
